From patent publication US12558428B2, “Heterobifunctional compounds and their use in treating disease” (Halda Therapeutics OpCo, Inc., priority 2024, dated 2026)
Read-outs that look alike come from different tables or passages of the source.

How the values were obtained:
Format in all cases: cell-based
[1] = test system: T-Rex 293 cells having increased expression of estrogen receptor alpha protein; test: Cellular growth inhibition assay, T-Rex 293 cells, (+) doxycycline; conditions: Table 7-A, T-Rex 293 cells with doxycycline (increased ERα expression), 72 hours, CellTiter-Glo, read-out: (+) Dox GI50
How it was run: (§1)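 ERα overexpression was switched on by 3 ng/mL doxycycline in a stably transfected T-Rex 293 clone, while uninduced cells served as the comparison line. Proliferation over 72 h of compound treatment was assessed by ATP luminescence, and GI50 values came from four-parameter curves.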

[2] = test system: T-Rex 293 cells lacking increased expression of estrogen receptor alpha protein; test: Cellular growth inhibition assay, T-Rex 293 cells, (−) doxycycline; conditions: Table 7-A, T-Rex 293 cells without doxycycline (lacking increased ERα expression), 72 hours, CellTiter-Glo, read-out: (−) Dox GI50
How it was run: as §1

[3] = test system: MCF7 cells (ATCC #HTB-22); test: Cellular growth inhibition assay, MCF7 cells purchased from ATCC; conditions: Table 8-A, MCF7 cells purchased from ATCC, six days, CellTiter-Glo, read-out: GI50
How it was run: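 MCF7 cells in RPMI 1640 with 10% FBS and 0.2 U/ml insulin, seeded at 1,500 cells/well (ATCC) or 225 cells/well (ECACC). Compounds added 24 h later, then 6 days at 37° C. Viability by CellTiter-Glo 2.0 luminescence. GI50 from four-parameter fit.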

SMILES | GI50 ([1]; T-REx-293, 72 h) | GI50 ([2]; T-REx-293, 72 h) | GI50 ([3]; Homo sapiens, MCF7, 144 h) | GI50 [1] | GI50 [2] | GI50 [3]
Cc1sc2c(c1C)C(c1ccc(N[C@@H]3C[C@H]4CCC[C@@H](C3)N4CCOc3ccc([C@@H]4c5ccc(O)cc5CC[C@@H]4c4ccccc4)cc3)cc1)=NC(Cc1ncco1)c1nnc(C)n1-2 (stereo partly drawn) [III-64] | 50 to 500 nM | 50 to 500 nM | 50 to 500 nM |  |  | 
Cc1sc2c(c1C)C(c1ccc(N3CCC4(CC3)CC(NCCOc3ccc([C@@H]5c6ccc(O)cc6CC[C@@H]5c5ccccc5)cc3)C4)cc1)=NC(Cc1ncco1)c1nnc(C)n1-2 (stereo partly drawn) [III-65] | < 50 nM | 50 to 500 nM | 50 to 500 nM |  |  | 
Cc1sc2c(c1C)C(c1ccc(N3CCO[C@@H](CNCCOc4ccc([C@@H]5c6ccc(O)cc6CC[C@@H]5c5ccccc5)cc4)C3)cc1)=NC(Cc1ncco1)c1nnc(C)n1-2 (stereo partly drawn) [III-66] | 50 to 500 nM | 50 to 500 nM | 50 to 500 nM |  |  | 
Cc1sc2c(c1C)C(c1ccc(N3CCN(CC4CN(c5ccc([C@@H]6c7ccc(O)cc7CC[C@@H]6c6ccccc6)cc5)C4)CC3)cc1)=N[C@@H](C)c1nnc(C)n1-2 [III-67] | < 50 nM | < 50 nM | < 50 nM |  |  | 
Cc1sc2c(c1C)C(c1ccc(N3CCN(CC4CN(c5ccc([C@H]6c7ccc(O)cc7CC[C@H]6c6ccccc6)cc5)C4)CC3)cc1)=N[C@@H](C)c1nnc(C)n1-2 [III-68] | 50 to 500 nM | 500 to 2500 nM | 50 to 500 nM |  |  | 
Cc1sc2c(c1C)C(c1ccc(OCC3CN(CC4CCN(c5ccc([C@H]6c7ccc(O)cc7CC[C@H]6c6ccccc6)cc5)CC4)C3)cc1)=N[C@@H](C)c1nnc(C)n1-2 [III-69] | 50 to 500 nM | 50 to 500 nM | 50 to 500 nM |  |  | 
Cc1sc2c(c1C)C(c1ccc(OCC3CN(CC4CCN(c5ccc([C@@H]6c7ccc(O)cc7CC[C@@H]6c6ccccc6)cc5)CC4)C3)cc1)=N[C@@H](C)c1nnc(C)n1-2 [III-70] | < 50 nM | 50 to 500 nM | < 50 nM |  |  | 
Cc1sc2c(c1C)C(c1ccc(N3CCC(CN4CCN(c5ccc([C@H]6c7ccc(O)cc7CC[C@H]6c6ccccc6)cc5)CC4)CC3)cc1)=N[C@H](Cc1ncco1)c1nnc(C)n1-2 [III-71] |  |  |  | > 2500 nM | > 2500 nM | > 2500 nM
Cc1sc2c(c1C)C(c1ccc(N3CCC(CN4CCN(c5ccc([C@H]6c7ccc(O)cc7CC[C@H]6c6ccccc6)cc5)CC4)CC3)cc1)=N[C@H](Cc1ncco1)c1nnc(C)n1-2 [III-72] |  |  |  | 500 to 2500 nM | 500 to 2500 nM | 500 to 2500 nM
Cc1sc2c(c1C)C(c1ccc(N3CCC(CN4CCN(c5ccc([C@@H]6c7ccc(O)cc7CC[C@@H]6c6ccccc6)cc5)CC4)CC3)cc1)=N[C@@H](Cc1ncco1)c1nnc(C)n1-2 [III-73] | < 50 nM | 500 to 2500 nM | < 50 nM |  |  | 
Cc1sc2c(c1C)C(c1ccc(N3CCC(CN4CCN(c5ccc([C@@H]6c7ccc(O)cc7CC[C@@H]6c6ccccc6)cc5)CC4)CC3)cc1)=N[C@H](Cc1ncco1)c1nnc(C)n1-2 [III-74] | < 50 nM | 50 to 500 nM | 50 to 500 nM |  |  | 
Cc1sc2c(c1C)C(c1ccc(N3CCC4(CC3)CN(CCOc3ccc([C@@H]5c6ccc(O)cc6CC[C@@H]5c5ccccc5)cc3)C4)cc1)=N[C@@H](C)c1nnc(C)n1-2 [III-78] | 50 to 500 nM | 50 to 500 nM | 50 to 500 nM |  |  | 
Cc1sc2c(c1C)C(c1ccc(N3CCC4(CC3)CN(CCOc3ccc([C@H]5c6ccc(O)cc6CC[C@H]5c5ccccc5)cc3)C4)cc1)=N[C@@H](C)c1nnc(C)n1-2 [III-79] | 50 to 500 nM | 50 to 500 nM | 50 to 500 nM |  |  | 
Cc1sc2c(c1C)C(c1ccc(N3CCN(CCC4CN(c5ccc([C@@H]6c7ccc(O)cc7CC[C@@H]6c6ccccc6)cc5)C4)CC3)cc1)=N[C@@H](C)c1nnc(C)n1-2 [III-80] | 50 to 500 nM | 500 to 2500 nM | > 2500 nM |  |  | 
Cc1sc2c(c1C)C(c1ccc(N3CCN(CC4CCN(c5ccc([C@@H]6c7ccc(O)cc7CC[C@@H]6c6ccccc6)cc5)CC4)CC3)cc1)=N[C@@H](CC(=O)O)c1nnc(C)n1-2 [III-81] | 50 to 500 nM | > 2500 nM | 50 to 500 nM |  |  | 
Cc1sc2c(c1C)C(c1ccc(C34COC(CN5CCN(c6ccc([C@@H]7c8ccc(O)cc8CC[C@@H]7c7ccccc7)cc6)CC5)(C3)C4)cc1)=N[C@@H](C)c1nnc(C)n1-2 [III-82] | 50 to 500 nM | 500 to 2500 nM | 50 to 500 nM |  |  | 
Cc1sc2c(c1C)C(c1ccc(C34COC(CN5CCN(c6ccc([C@H]7c8ccc(O)cc8CC[C@H]7c7ccccc7)cc6)CC5)(C3)C4)cc1)=N[C@@H](C)c1nnc(C)n1-2 [III-83] | 50 to 500 nM | 500 to 2500 nM | 50 to 500 nM |  |  | 

SMILES | GI50 ([1]; T-REx-293, 72 h) | GI50 ([2]; T-REx-293, 72 h) | GI50 ([3]; Homo sapiens, MCF7, 144 h) | GI50 [1] | GI50 [2] | GI50 [3]
Cc1sc2c(c1C)C(c1ccc(N3CC(CCN4CC(COc5ccc([C@@H]6c7ccc(O)cc7CC[C@@H]6c6ccccc6)cc5)C4)C3)cc1)=N[C@@H](C)c1nnc(C)n1-2 [III-84] | < 50 nM | 500 to 2500 nM | 50 to 500 nM |  |  | 
Cc1sc2c(c1C)C(c1ccc(N3CC(CCN4CC(COc5ccc([C@H]6c7ccc(O)cc7CC[C@H]6c6ccccc6)cc5)C4)C3)cc1)=N[C@@H](C)c1nnc(C)n1-2 [III-85] | 50 to 500 nM | 500 to 2500 nM | 50 to 500 nM |  |  | 
Cc1sc2c(c1C)C(c1ccc(OC3CCN(CC4CCN(c5ccc([C@@H]6c7ccc(O)cc7CC[C@@H]6c6ccccc6)cc5)CC4)CC3)cc1)=N[C@@H](C)c1nnc(C)n1-2 [III-86] | 50 to 500 nM | 500 to 2500 nM | 50 to 500 nM |  |  | 
Cc1sc2c(c1C)C(c1ccc(N3CCC(CN4CC5(CCN(c6ccc([C@@H]7c8ccc(O)cc8CC[C@@H]7c7ccccc7)cc6)CC5)C4)CC3)cc1)=N[C@@H](C)c1nnc(C)n1-2 [III-87] | < 50 nM | 50 to 500 nM | < 50 nM |  |  | 
Cc1sc2c(c1C)C(c1ccc(N3CCC4(CC3)CN(CC3CCN(c5ccc([C@@H]6c7ccc(O)cc7CC[C@@H]6c6ccccc6)cc5)CC3)C4)cc1)=N[C@@H](C)c1nnc(C)n1-2 [III-88] | < 50 nM | 50 to 500 nM | < 50 nM |  |  | 
Cc1sc2c(c1C)C(c1ccc(N3CC(CN4CCN(c5ccc([C@@H]6c7ccc(O)cc7CC[C@@H]6c6ccccc6)cc5)CC4)C3)cc1)=N[C@@H](C)c1nnc(C)n1-2 [III-89] | < 50 nM | 500 to 2500 nM | 50 to 500 nM |  |  | 
Cc1sc2c(c1C)C(c1ccc(OC3CC4(CCN(c5ccc([C@@H]6c7ccc(O)cc7CC[C@@H]6c6ccccc6)cc5)CC4)C3)cc1)=N[C@@H](C)c1nnc(C)n1-2 [III-90] | 500 to 2500 nM | > 2500 nM | 50 to 500 nM |  |  | 
Cc1sc2c(c1C)C(c1ccc(N3CCC(CN4CC(COc5ccc([C@@H]6c7ccc(O)cc7CC[C@@H]6c6ccccc6)cc5)C4)CC3)cc1)=N[C@@H](Cc1ncco1)c1nnc(C)n1-2 [III-91] | 50 to 500 nM | 500 to 2500 nM | < 50 nM |  |  | 
Cc1sc2c(c1C)C(c1ccc(N3CCC(CN4CC(COc5ccc([C@H]6c7ccc(O)cc7CC[C@H]6c6ccccc6)cc5)C4)CC3)cc1)=N[C@@H](Cc1ncco1)c1nnc(C)n1-2 [III-92] | 50 to 500 nM | 50 to 500 nM | 50 to 500 nM |  |  | 
Cc1sc2c(c1C)C(c1ccc(C3CN(CCN4CC(COc5ccc([C@@H]6c7ccc(O)cc7CC[C@@H]6c6ccccc6)cc5)C4)C3)cc1)=N[C@@H](C)c1nnc(C)n1-2 [III-95] | < 50 nM | 50 to 500 nM | < 50 nM |  |  | 
Cc1sc2c(c1C)C(c1ccc(C3CN(CCN4CC(COc5ccc([C@H]6c7ccc(O)cc7CC[C@H]6c6ccccc6)cc5)C4)C3)cc1)=N[C@@H](C)c1nnc(C)n1-2 [III-96] | 50 to 500 nM | 50 to 500 nM | 50 to 500 nM |  |  | 
Cc1sc2c(c1C)C(c1ccc(N3CC4(CN(CC5CCN(c6ccc([C@@H]7c8ccc(O)cc8CC[C@@H]7c7ccccc7)cc6)CC5)C4)C3)cc1)=N[C@@H](C)c1nnc(C)n1-2 [III-97] | < 50 nM | 500 to 2500 nM | < 50 nM |  |  | 
Cc1sc2c(c1C)C(c1ccc(CCN3CC4(CCN(c5ccc([C@@H]6c7ccc(O)cc7CC[C@@H]6c6ccccc6)cc5)CC4)C3)cc1)=N[C@@H](C)c1nnc(C)n1-2 [III-98] | < 50 nM | 500 to 2500 nM | 50 to 500 nM |  |  | 
Cc1sc2c(c1C)C(c1ccc(N3CC(CN4CC(Oc5ccc([C@@H]6c7ccc(O)cc7CC[C@@H]6c6ccccc6)cc5)C4)C3)cc1)=N[C@@H](C)c1nnc(C)n1-2 [III-99] | 50 to 500 nM | 50 to 500 nM | 50 to 500 nM |  |  | 
Cc1sc2c(c1C)C(c1ccc(N3CC(CN4CC(Oc5ccc([C@H]6c7ccc(O)cc7CC[C@H]6c6ccccc6)cc5)C4)C3)cc1)=N[C@@H](C)c1nnc(C)n1-2 [III-100] | 50 to 500 nM | 50 to 500 nM | 50 to 500 nM |  |  | 
Cc1sc2c(c1C)C(c1ccc(N3CC(CN4CC(COc5ccc([C@@H]6c7ccc(O)cc7CC[C@@H]6c6ccccc6)cc5)C4)C3)cc1)=N[C@@H](C)c1nnc(C)n1-2 [III-101] | < 50 nM | 50 to 500 nM | 50 to 500 nM |  |  | 
Cc1sc2c(c1C)C(c1ccc(N3CC(CN4CC(COc5ccc([C@H]6c7ccc(O)cc7CC[C@H]6c6ccccc6)cc5)C4)C3)cc1)=N[C@@H](C)c1nnc(C)n1-2 [III-102] | 50 to 500 nM | 50 to 500 nM | 50 to 500 nM |  |  | 
